Test results taken from ChEMBL document CHEMBL5214948, “Boronic Acid: A Novel Pharmacophore Targeting Src Homology 2 (SH2) Domain of STAT3” (J Med Chem, 2022).
The source made the active and inactive calls. The rule behind the calls is not given here.

What was measured:
MGC-803 [1] = experiment: Antitumor activity against human MGC-803 cells xenografted in BALB/c nude mouse assessed as reduction in Bcl-xL expression at 5 mg/kg, ip measured every day for 20 days by immunohistochemical analysis; assay type: functional, organism-based; details: time 20.0 day
MGC-803 [2] = experiment: Antitumor activity against human MGC-803 cells xenografted in BALB/c nude mouse assessed as tumor growth inhibition at 5 mg/kg, ip measured every day for 20 days; assay type: functional; design: scale not given: the % may be the effect or the level left; details: time 20 day
[3] = Clearance in ICR mouse at 5 mg/kg, iv measured upto 24 hrs by LC-MS/MS analysis; assay type: ADME, organism-based; details: in vivo
[4] = molecular target: T1, Signal transducer and activator of transcription 3 (Homo sapiens, UniProt P40763); experiment: Inhibition of STAT3 phosphorylation at Tyr705 residue in human MGC-803 cells incubated for 24 hrs by Western blot analysis; assay type: cell-based; details: dose 3-5 µM, DDE = dose-dependent effect
MGC-803 [5] = experiment: Antiproliferative activity against human MGC-803 cells assessed as reduction in cell viability measured after 72 hrs by CCK-8 assay; assay type: functional, cell-based; details: MGC-803, 72 h
[6] = molecular target: T1, Signal transducer and activator of transcription 3; experiment: Binding affinity to full length wild type STAT3-SH2 domain (unknown origin) in human MGC-803 cells assessed as thermal stabilization of protein at 37 to 53 degreeC at 5 uM incubated for 3 hrs by cellular thermal shift assay; assay type: cell-based
MGC-803 [7] = experiment: Antitumor activity against human MGC-803 cells xenografted in BALB/c nude mouse assessed as reduction in Ki67 expression at 15 mg/kg, ip measured every day for 20 days by immunohistochemical analysis; assay type: functional, organism-based; details: time 20.0 day
[8] = molecular target: T1, Signal transducer and activator of transcription 3; experiment: Inhibition of IL-6 induced FLAG/HA-tagged STAT3 dimerization in human HEK293T cells pretreated for 24 hrs followed by IL-6 stimulation and measured after 1 hr by immunoprecipitation assay; assay type: cell-based; details: time 25.0 hrs, DDE = dose-dependent effect
in vivo [9] = assay type: ADME, organism-based; details: ICR, mouse, iv, 5 mg/kg
MGC-803 [10] = experiment: Antitumor activity against human MGC-803 cells xenografted in BALB/c nude mouse assessed as reduction in tumor progression at 15 mg/kg, ip measured every day for 20 days by immunohistochemical analysis; assay type: functional, organism-based; details: time 20.0 day
MGC-803 [11] = experiment: Antitumor activity against human MGC-803 cells xenografted in BALB/c nude mouse assessed as reduction in Bcl-xL expression at 15 mg/kg, ip measured every day for 20 days by immunohistochemical analysis; assay type: functional, organism-based; details: time 20.0 day
[12] = Toxicity in nude BALB/c nude mouse xenografted with human MGC-803 cells assessed as morphological changes in heart at 5 to 15 mg/kg, ip measured every day for 20 days by H and E staining based assay; assay type: organism-based; details: in vivo, 480 h, time 20 day
[13] = Toxicity in nude BALB/c nude mouse xenografted with human MGC-803 cells assessed as morphological changes in spleen at 5 to 15 mg/kg, ip measured every day for 20 days by H and E staining based assay; assay type: organism-based; details: in vivo, 480 h, time 20 day
AGS [14] = experiment: Induction of apoptosis in human AGS cells at 3 uM incubated for 72 hrs by V-FITC/PI staining based flow cytometry assay; assay type: functional
[15] = Toxicity in nude BALB/c nude mouse xenografted with human MGC-803 cells assessed as morphological changes in kidney at 5 to 15 mg/kg, ip measured every day for 20 days by H and E staining based assay; assay type: organism-based; details: in vivo, 480 h, time 20 day
AGS [16] = experiment: Antiproliferative activity against human AGS cells assessed as reduction in cell viability incubated for 72 hrs by CCK-8 assay; assay type: functional, cell-based
MGC-803 [17] = experiment: Antitumor activity against human MGC-803 cells xenografted in BALB/c nude mouse assessed as reduction in phosphorylated STAT3 at Y705 residue at 5 mg/kg, ip measured every day for 20 days by immunohistochemical analysis; assay type: functional, organism-based; details: time 20.0 day
MGC-803 [18] = experiment: Antiproliferative activity against human MGC-803 cells assessed as reduction in cell viability at 3 to 5 uM incubated for 72 hrs by Edu incorporation assay; assay type: functional, cell-based; details: dose 3-5 µM
MGC-803 [19] = experiment: Antitumor activity against human MGC-803 cells xenografted in BALB/c nude mouse assessed as tumor growth inhibition at 15 mg/kg, ip measured every day for 20 days; assay type: functional; design: scale not given: the % may be the effect or the level left; details: time 20 day
in vivo [20] = assay type: ADME, organism-based; details: ICR, mouse, iv, 5 mg/kg; remark: listed apart in the source
[21] = molecular target: T1, Signal transducer and activator of transcription 3; experiment: Binding affinity to full length wild type STAT3-SH2 domain (unknown origin) assessed as equilibrium dissociation constant by SPR analysis
[22] = Toxicity in nude BALB/c nude mouse xenografted with human MGC-803 cells assessed as morphological changes in liver at 5 to 15 mg/kg, ip measured every day for 20 days by H and E staining based assay; assay type: organism-based; details: in vivo, 480 h, time 20 day
[23] = Half life in ICR mouse at 5 mg/kg, iv measured upto 24 hrs by LC-MS/MS analysis; assay type: ADME, organism-based; details: in vivo
MGC-803 [24] = experiment: Inhibition of colony formation in human MGC-803 cells at 1 uM incubated for 10 to 15 days by crystal violet staining based assay; assay type: functional, cell-based; details: time 10-15 day
MGC-803 [25] = experiment: Antitumor activity against human MGC-803 cells xenografted in BALB/c nude mouse assessed as reduction in c-myc expression at 15 mg/kg, ip measured every day for 20 days by immunohistochemical analysis; assay type: functional, organism-based; details: time 20.0 day
AGS [26] = experiment: Inhibition of cell invasion in human AGS cells measured after 24 hrs by crystal violet staining based imaging transwell assay; assay type: functional; details: dose 1-3 µM, DDE = dose-dependent effect
MGC-803 [27] = experiment: Antitumor activity against human MGC-803 cells xenografted in BALB/c nude mouse assessed as reduction in tumor cells at 5 mg/kg, ip measured every day for 20 days by immunohistochemical analysis; assay type: functional, organism-based; details: time 20.0 day

T1 sequence (P40763 whole entry): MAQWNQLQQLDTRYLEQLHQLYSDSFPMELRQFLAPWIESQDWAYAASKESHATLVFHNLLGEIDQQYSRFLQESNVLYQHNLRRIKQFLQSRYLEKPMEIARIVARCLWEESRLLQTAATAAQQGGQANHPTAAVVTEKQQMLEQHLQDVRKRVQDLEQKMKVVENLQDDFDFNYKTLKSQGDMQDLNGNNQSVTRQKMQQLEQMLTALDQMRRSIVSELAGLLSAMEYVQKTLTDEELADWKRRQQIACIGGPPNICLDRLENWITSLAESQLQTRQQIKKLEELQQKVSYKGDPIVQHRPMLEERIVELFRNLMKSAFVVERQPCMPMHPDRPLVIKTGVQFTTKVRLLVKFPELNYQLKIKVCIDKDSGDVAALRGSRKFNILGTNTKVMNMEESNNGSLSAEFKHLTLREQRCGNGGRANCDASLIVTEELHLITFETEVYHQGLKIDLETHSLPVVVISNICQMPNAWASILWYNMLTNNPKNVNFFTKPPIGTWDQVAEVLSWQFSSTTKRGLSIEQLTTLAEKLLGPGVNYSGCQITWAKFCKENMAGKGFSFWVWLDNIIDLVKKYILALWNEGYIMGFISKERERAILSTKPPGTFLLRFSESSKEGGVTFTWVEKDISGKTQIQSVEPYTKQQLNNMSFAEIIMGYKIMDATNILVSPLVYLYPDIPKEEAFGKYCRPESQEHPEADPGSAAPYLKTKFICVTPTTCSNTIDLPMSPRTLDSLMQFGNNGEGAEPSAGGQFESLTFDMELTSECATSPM

With `CN(CC(=O)N(Cc1ccc(C2CCCCC2)cc1)c1ccc(B(O)O)cc1)S(=O)(=O)c1c(F)c(F)c(F)c(F)c1F` the Activity (MGC-803 [1]) was “Active”, the Activity (MGC-803 [2]) was 65.14% and the clearance [3] was 176 mL/min/kg. For the same compound, the inhibition [4] was “Dde”, the IC50 (MGC-803 [5]) was 4.73 µM and the Activity [6] was “Active”. The Activity (MGC-803 [7]) was “Active”, the inhibition [8] was “Dde” and the AUC(0-inf) at 24 h (in vivo [9]) was 490 ng·h/mL. The Activity (MGC-803 [10]) was “Active”, the Activity (MGC-803 [11]) was “Active” and the Activity [12] was “Non-Toxic”. For the same compound, the Activity [13] was “Non-Toxic”, the Activity (AGS [14]) was 26.7% and the Activity [15] was “Non-Toxic”. The IC50 (AGS [16]) was 1.54 µM, the Activity (MGC-803 [17]) was “Active” and the Activity (MGC-803 [18]) was “Active”. It also gave an Activity (MGC-803 [19]) of 79.13%, an AUC(0-t) at 24 h (in vivo [20]) of 485 ng·h/mL and a Kd [21] of 5.02 µM. For the same compound, the Activity [22] was “Non-Toxic”, the half-life [23] was 1.25 h and the inhibition (MGC-803 [24]) was “Active”. For the same compound, the Activity (MGC-803 [25]) was “Active”, the inhibition (AGS [26]) was “Dde” and the Activity (MGC-803 [27]) was “Active”.
